Measurements published in patent US20240207421A1, “NERVE TARGETING PEPTIDES AND METHODS OF USE” (ALUME BIOSCIENCES, INC., priority 2020, published 2024).

How the values were obtained:
Human Myelin PLP = experiment: Phage display library screening (Example 2, Python script analysis), binding to Human Myelin PLP; conditions: combined unique sequence count, Python/R script analysis
Protocol: (§1) Phage display library screens were used to identify peptides that bind to target proteins (including specific laminin trimers) that are expressed in human nerves, as described in Table 3. These screens were also carried out to identify peptides that could bind selectively to nerves versus muscle. Such peptides could therefore be useful for systemic in-vivo labeling of nerves during fluorescence assisted surgery. Specifically, m 13 phage libraries expressing 7 or 12 random amino acid peptides, or a cyclic peptide CX7C, on the N-terminus of the minor coat protein pIII (New England Biolabs; NEB) were processed through multiple rounds of selection for binding to target proteins expressed in nerves, or to excised human nerves, nerve extracts, or muscle, as described further below.
(§2) For screening against the specified target proteins in Table 1, including LN211, LN411, LN421, and LN521, the phage library was processed by up to 4 binding and wash cycles. For selection, phage libraries were incubated for up to 24 hours at 4° C. in 96 well plates that had been coated with one of the target proteins. Plates were then washed with PBS and phage were eluted using 0.2M glycine pH 2.0. Phage supernatants where then neutralized with Tris pH 9.0 prior to plating on TGI bacteria and LB agar plates. Colonies were counted to determine titer followed by DNA preparation of pools of phage and NextGen sequencing. After rounds of selection, phage were pooled and amplified for iterative selection. Phage that were bound at each round were sequenced. NextGen sequencing of pools after 2, 3 and 4 rounds of selection was used to isolate candidate sequences that were analyzed further to identify those that specifically bound each unique target protein.
(§3) Python Script Analysis: For all NEB sequence datasets, a python script was used to translate, trim, and filter the peptide sequences. The script translated the nucleotide sequences, translating amber codons as glutamine in peptide sequences, and then trimmed the end sequences that come from the vector. Secondly, the script combined the unique counts of trimmed peptides with identical sequences. […] Another python script was used to group peptides from different assays according to protein target (Myelin Protein Zero, Myelin Proteolipid Protein, Myelin Basic Protein, and Nidogen-2) and also combine the unique sequence counts for each peptide. An R script was written to merge the peptide sequences from different data files and determine peptides specific for each protein target but absent from different protein binding datasets. Peptide sequences were ranked by unique sequence count.

Laminin 421/521 = experiment: Phage display library screening (Example 2), NEB laminin-binding peptides; set-up: species or system human; conditions: Laminin 421/521, not 211 and 411; combined unique sequence count, Python/R script analysis
How it was run: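 M13 phage libraries (7- or 12-mer random or cyclic CX7C peptides on pIII) panned up to 4 rounds against plate-coated laminins LN211, LN411, LN421, LN521, 24 h at 4 °C; elution with 0.2M glycine pH 2.0. NextGen sequencing of pools after rounds 2–4; peptides binding 421/521 but not 211/411 identified.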

Human MPZ = experiment: Phage display library screening (Example 2, Python script analysis), binding to Human MPZ; conditions: combined unique sequence count, Python/R script analysis
Chain of Human MPZ (P25189 30-153 limits assumed): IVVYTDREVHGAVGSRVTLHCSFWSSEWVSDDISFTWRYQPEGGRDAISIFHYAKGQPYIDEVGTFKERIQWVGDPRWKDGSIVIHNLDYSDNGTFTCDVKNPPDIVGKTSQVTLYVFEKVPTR
Protocol: as §1, §2, §3

| Substance | Count (Human MPZ) | further results |
| --- | --- | --- |
| AHQSSVT (Myelin PLP-binding peptide) |  | Count (Human Myelin PLP): 42 |
| ALFQERK (Myelin PLP-binding peptide) |  | Count (Human Myelin PLP): 27 |
| AQASSAR (Myelin PLP-binding peptide) |  | Count (Human Myelin PLP): 27 |
| ARFVPLT (Myelin PLP-binding peptide) |  | Count (Human Myelin PLP): 30 |
| ASLTLAL (Myelin PLP-binding peptide) |  | Count (Human Myelin PLP): 26 |
| AVVAMNK (Myelin PLP-binding peptide) |  | Count (Human Myelin PLP): 28 |
| DGSRDLV (Myelin PLP-binding peptide) |  | Count (Human Myelin PLP): 30 |
| DRHEGHR (Myelin PLP-binding peptide) |  | Count (Human Myelin PLP): 26 |
| EGHVWSEYTWGT (Human MPZ-binding peptide) | 37 | Count (Laminin 421/521): 50 |
| EKSTTVA (Myelin PLP-binding peptide) |  | Count (Human Myelin PLP): 30 |
| EPSSFTF (Myelin PLP-binding peptide) |  | Count (Human Myelin PLP): 31 |
| EVLYPNN (Myelin PLP-binding peptide) |  | Count (Human Myelin PLP): 27 |
| FPSYTIS (Human MPZ-binding peptide) | 40 |  |
| FRIDKSM (Myelin PLP-binding peptide) |  | Count (Human Myelin PLP): 26 |
| FRVTQTA (Human MPZ-binding peptide) | 41 |  |
| FSLDRDG (Myelin PLP-binding peptide) |  | Count (Human Myelin PLP): 29 |
| FSPRDVS (Human MPZ-binding peptide) | 39 |  |
| FSTPTNV (Myelin PLP-binding peptide) |  | Count (Human Myelin PLP): 29 |
| FSTTGRG (Human MPZ-binding peptide) | 39 |  |
| GEWRARIDQDVS (Human MPZ-binding peptide) | 65 |  |
| GGSKVWG (Human MPZ-binding peptide) | 40 |  |
| GHLQSLF (Myelin PLP-binding peptide) |  | Count (Human Myelin PLP): 26 |
| GIPSSKN (Myelin PLP-binding peptide) |  | Count (Human Myelin PLP): 28 |

| Substance | Count (Human MPZ) | further results |
| --- | --- | --- |
| GKSYSQI (Myelin PLP-binding peptide) |  | Count (Human Myelin PLP): 31 |
| GLWGPSL (Myelin PLP-binding peptide) |  | Count (Human Myelin PLP): 26 |
| GLWRHTM (Human MPZ-binding peptide) | 40 |  |
| GMVSPHHSVYRH (Human MPZ-binding peptide) | 51 |  |
| GNVFQTS (Myelin PLP-binding peptide) |  | Count (Human Myelin PLP): 31 |
| GPAAVII (Myelin PLP-binding peptide) |  | Count (Human Myelin PLP): 29 |
| GPVVSGM (Human MPZ-binding peptide) | 46 |  |
| GSAWKKH (Myelin PLP-binding peptide) |  | Count (Human Myelin PLP): 44 |
| GSWSSGF (Human MPZ-binding peptide) | 52 |  |
| GWSTAIR (Myelin PLP-binding peptide) |  | Count (Human Myelin PLP): 29 |
| HHPLFID (Human MPZ-binding peptide) | 39 |  |
| HKAPLGT (Myelin PLP-binding peptide) |  | Count (Human Myelin PLP): 29 |
| HLDSRRH (Human MPZ-binding peptide) | 46 |  |
| HLHTRPT (Myelin PLP-binding peptide) |  | Count (Human Myelin PLP): 27 |
| HNQLLYT (Human MPZ-binding peptide) | 38 |  |
| HPFPRFD (Human MPZ-binding peptide) | 45 |  |
| HPLMVPS (Human MPZ-binding peptide) | 41 |  |
| IDRVRGL (Myelin PLP-binding peptide) |  | Count (Human Myelin PLP): 29 |
| IEQVGWR (Human MPZ-binding peptide) | 38 |  |
| IHHLESS (Myelin PLP-binding peptide) |  | Count (Human Myelin PLP): 32 |
| IIPPTSV (Myelin PLP-binding peptide) |  | Count (Human Myelin PLP): 31 |
| ISSVTVV (Human MPZ-binding peptide) | 37 |  |
| KLPTLSV (Human MPZ-binding peptide) | 44 |  |

| Substance | Count (Human MPZ) | further results |
| --- | --- | --- |
| KQPAMEN | 37 |  |
| KRNLWDI (Human MPZ-binding peptide) | 40 |  |
| KTPILAS (Human MPZ-binding peptide) | 38 |  |
| LISPTAR (Human MPZ-binding peptide) | 37 |  |
| LPAESHW (Human MPZ-binding peptide) | 45 |  |
| LPNANNL (Human MPZ-binding peptide) | 41 |  |
| LSPPRIM (Human MPZ-binding peptide) | 43 |  |
| LVLQTTP (Human MPZ-binding peptide) | 37 |  |
| LVLSNPR (Human MPZ-binding peptide) | 46 |  |
| LVNPFPE (Human MPZ-binding peptide) | 39 |  |
| LWAKRDA (Human MPZ-binding peptide) | 38 |  |
| MIHTRQT (Human MPZ-binding peptide) | 41 |  |
| MYHDSVS (Human MPZ-binding peptide) | 47 |  |
| NASVPPK (Human MPZ-binding peptide) | 42 |  |
| NGAYSLAIRYTS (Human MPZ-binding peptide) | 53 |  |
| NMSHSNR (Human MPZ-binding peptide) | 46 |  |
| NPISPRN (Human MPZ-binding peptide) | 38 |  |
| NPTSEGA (Human MPZ-binding peptide) | 37 |  |
| NTASMTT (Human MPZ-binding peptide) | 38 |  |
| QIAHLEY (Human MPZ-binding peptide) | 50 |  |
| SAHSVVE (Human MPZ-binding peptide) | 38 |  |
| SETESYM (Human MPZ-binding peptide) | 41 |  |
| SGHGAFR (Human MPZ-binding peptide) | 42 |  |

| Substance | Count (Human MPZ) | further results |
| --- | --- | --- |
| SNALSYF (Human MPZ-binding peptide) | 41 |  |
| SPNTNSH (Human MPZ-binding peptide) | 40 |  |
| STHEWRT (Human MPZ-binding peptide) | 45 |  |
| SVAYVPV (Human MPZ-binding peptide) | 46 |  |
| SYLPPFI (Human MPZ-binding peptide) | 41 |  |
| THSTDLS (Human MPZ-binding peptide) | 37 |  |
| TLLHYSA (Human MPZ-binding peptide) | 40 |  |
| TTLVVTA (Human MPZ-binding peptide) | 42 |  |
| TTNVTEIERESY (Human MPZ-binding peptide) | 37 |  |
| TTWPNTA (Human MPZ-binding peptide) | 45 |  |
| VHTPYRS (Human MPZ-binding peptide) | 41 |  |
| VPLAYLR (Human MPZ-binding peptide) | 40 |  |
| VVPLKWI (Human MPZ-binding peptide) | 40 |  |
| WMTNLDP (Human MPZ-binding peptide) | 43 |  |
| WPRPIQI (Human MPZ-binding peptide) | 41 |  |
| WTSVATA (Human MPZ-binding peptide) | 41 |  |
| YAPWRVF (Human MPZ-binding peptide) | 37 |  |
| YEGERGA (Human MPZ-binding peptide) | 39 |  |
| YGQSITE (Human MPZ-binding peptide) | 37 |  |
| YMKHSPG (Human MPZ-binding peptide) | 45 |  |
| YPQARTS (Human MPZ-binding peptide) | 46 |  |
| YSSLTSN (Human MPZ-binding peptide) | 38 |  |
| YTPNWHFRWMPA (Human MPZ-binding peptide) | 60 |  |
